# Measured values from US8785488B2 (Exelixis Patent Company LLC, priority 2009, dated 2014).
# Read-outs that look alike come from different tables or passages of the source.
# What was measured:
# [1] = biological target: T1, h-TGR5 (Homo sapiens, UniProt Q8TDU6); assay: TGR5 cAMP Assay using Cisbio cAMP Dynamic2 htrf kit (hTGR5CRE-luc HEK 293 cells); assay type: cell-based
# T1 construct: expressed in transfected cells
# T1 sequence (Q8TDU6 1-330): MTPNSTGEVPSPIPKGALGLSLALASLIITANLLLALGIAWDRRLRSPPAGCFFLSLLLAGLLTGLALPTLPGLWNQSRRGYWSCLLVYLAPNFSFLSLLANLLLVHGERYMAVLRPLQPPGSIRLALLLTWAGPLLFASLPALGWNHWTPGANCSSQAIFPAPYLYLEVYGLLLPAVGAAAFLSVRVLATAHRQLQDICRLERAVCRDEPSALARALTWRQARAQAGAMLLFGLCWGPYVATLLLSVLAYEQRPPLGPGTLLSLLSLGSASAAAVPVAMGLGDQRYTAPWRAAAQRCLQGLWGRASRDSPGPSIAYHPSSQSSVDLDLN
# Method in brief: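 […], 4000 hTGR5CRE-luc HEK 293 cells per well, with 0.5 mM IBMX and d2-cAMP, were incubated 30 min at room temperature with compounds in 8-point half-log series, in quadruplicate.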
# [2] = biological target: T2, human TGR5 (h-TGR5) (Homo sapiens, UniProt Q8TDU6); assay: TGR5/CRE-Luciferiase Assay (HEK 293 hTGR5/CRE-Luc cells); assay type: cell-based
# T2 construct: expressed in transfected cells
# T2 sequence (Q8TDU6 1-330): T1 sequence (Q8TDU6 1-330)
# Method in brief: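 HEK293 cells stably carrying hTGR5 and a CRE-luciferase reporter were exposed to serially diluted compounds (diluted in DMEM with 5% DMSO) for 6 h. Cells were then lysed in luciferase buffer, luminescence was read, and EC50 values were derived from dose-response curves.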
# [3] = h-TGR5 cAMP EC50, Table 1, read-out: cAMP (EC50)
# [4] = h-TGR5 CRE-Luc EC50, Table 1, read-out: CRE-Luc (EC50)
# [5] = hTGR5CRE-luc HEK 293 cells, htrf cAMP, Table 2, read-out: h-TGR5 cAMP EC50 (cAMP)
# [6] = HEK 293 hTGR5/CRE-Luc cells, 6 hours incubation, luciferase activity, Table 2, read-out: h-TGR5CRE-Luc EC50 (CRE-Luc)
"EC50 [1, 3] [µM]","EC50 [2, 4] [µM]","EC50 [1, 5] [µM]","EC50 [2, 6] [µM]",Structure (SMILES)
0.1 to 1,0.1 to 1,,,CC(C)NC(=O)NS(=O)(=O)c1ccc(CSc2ncc(C(C)(C)c3ccc(C(F)F)c(F)c3)n2-c2ccc(F)cc2)c(Cl)c1 [3-chloro-4-({[5-{1-[4-(difluoromethyl)-3-fluorophenyl]-1-methylethyl}-1-(4-fluorophenyl)-1H-imidazol-2-yl]thio}methyl)-N-{[(1-methylethyl)amino]carbonyl} benzenesulfonamide]
0.1 to 1,< 0.1,,,COc1cc(C(C)(C)c2cnc(SCC3CCN(c4nnn[nH]4)CC3)n2-c2ccc(F)cc2)ccc1Cl [4-({[5-{1-[4-chloro-3-(methyloxy)phenyl]-1-methylethyl}-1-(4-fluorophenyl)-1H-imidazol-2-yl]thio}methyl)-1-(1H-tetrazol-5-yl)piperidine]
< 0.1,< 0.1,,,COc1cc(C(C)(C)c2cnc(SCc3ccc(C(=O)NCCC(=O)O)cc3F)n2-c2ccc(F)cc2)ccc1Cl [N-{[4-({[5-{1-[4-chloro-3-(methyloxy)phenyl]-1-methylethyl}-1-(4-fluorophenyl)-1H-imidazol-2-yl]thio}methyl)-3-fluorophenyl]carbonyl}-beta-alanine]
0.1 to 1,< 0.1,,,"CC(C)(c1ccc(Cl)c(Cl)c1)c1cnc(SCC2CCN(S(C)(=O)=O)CC2)n1-c1ccc(F)cc1 [4-[({5-[1-(3,4-dichlorophenyl)-1-methylethyl]-1-(4-fluorophenyl)-1H-imidazol-2-yl}thio)methyl]-1-(methylsulfonyl)piperidine]"
0.1 to 1,0.1 to 1,,,COc1cc(C(C)(C)c2cnc(SCc3ccc(S(=O)(=O)NC(=O)NN4CCCC4)cc3Cl)n2-c2ccc(F)c(CO)c2)ccc1Cl [3-chloro-4-{[(5-{1-[4-chloro-3-(methyloxy)phenyl]-1-methylethyl}-1-[4-fluoro-3-(hydroxymethyl)phenyl]-1H-imidazol-2-yl)thio]methyl}-N-[(pyrrolidin-1-ylamino)carbonyl]benzenesulfonamide]
0.1 to 1,0.1 to 1,,,"CC(C)(c1ccc(Cl)c(Cl)c1)c1cnc(SCc2ccc(S(N)(=O)=O)cc2Cl)n1-c1ccc(F)cc1 [3-chloro-4-[({5-[1-(3,4-dichlorophenyl)-1-methylethyl]-1-(4-fluorophenyl)-1H-imidazol-2-yl}thio)methyl]benzenesulfonamide]"
0.1 to 1,< 0.1,,,"CC(C)(c1ccc(Cl)c(Cl)c1)c1cnc(SCc2ccc(F)c(S(C)(=O)=O)c2)n1-c1ccc(F)cc1 [5-[1-(3,4-dichlorophenyl)-1-methylethyl]-2-({[4-fluoro-3-(methylsulfonyl)phenyl]methyl}thio)-1-(4-fluorophenyl)-1H-imidazole]"
< 0.1,0.1 to 1,,,COc1cc(C(C)(C)c2c(C)nc(SCc3c(F)cc(C(=O)O)cc3Cl)n2-c2ccc(F)cc2)ccc1Cl [3-chloro-4-({[5-{1-[4-chloro-3-(methyloxy)phenyl]-1-methylethyl}-1-(4-fluorophenyl)-4-methyl-1H-imidazol-2-yl]thio}methyl)-5-fluorobenzoic acid]
,,0.1 to 1,< 0.1,COc1cc(-n2c(SCc3ccc(Cl)c(-c4nnn[nH]4)c3)nnc2C(C)(C)c2ccc(Cl)c(OC)c2)ccc1F [Example 49]
0.1 to 1,< 0.1,,,"CC(C)(c1ccc(Cl)c(Cl)c1)c1cnc(SCC2CCN(c3nnn[nH]3)CC2)n1-c1ccc(F)c(Cl)c1 [4-[({1-(3-chloro-4-fluorophenyl)-5-[1-(3,4-dichlorophenyl)-1-methylethyl]-1H-imidazol-2-yl}thio)methyl]-1-(1H-tetrazol-5-yl)piperidine]"
0.1 to 1,0.1 to 1,,,"COc1cc(-n2c(C(C)(C)c3ccc(Cl)c(Cl)c3)cnc2SCc2ccc(F)cc2Cl)ccc1F [2-{[(2-chloro-4-fluorophenyl)methyl]thio}-5-[1-(3,4-dichlorophenyl)-1-methylethyl]-1-[4-fluoro-3-(methyloxy)phenyl]-1H-imidazole]"
1 to 10,0.1 to 1,,,"COc1cc(-n2c(C(C)(C)c3ccc(Cl)c(Cl)c3)cnc2SCc2ccc(S(=O)(=O)NC(=O)NN3CCCC3)cc2Cl)ccc1F [3-chloro-4-[({5-[1-(3,4-dichlorophenyl)-1-methylethyl]-1-[4-fluoro-3-(methyloxy)phenyl]-1H-imidazol-2-yl}thio)methyl]-N-[(pyrrolidin-1-ylamino)carbonyl]benzenesulfonamide]"
0.1 to 1,0.1 to 1,,,"CC(C)(c1ccc(Cl)c(Cl)c1)c1cnc(SCc2cc(C(=O)O)ccc2Cl)n1-c1ccc(F)cc1 [4-chloro-3-[({5-[1-(3,4-dichlorophenyl)-1-methylethyl]-1-(4-fluorophenyl)-1H-imidazol-2-yl}thio)methyl]benzoic acid]"
0.1 to 1,< 0.1,,,"CC(C)(c1ccc(F)c(F)c1)c1cnc(SCC2CCN(S(C)(=O)=O)CC2)n1-c1ccc(F)cc1 [4-[({5-[1-(3,4-difluorophenyl)-1-methylethyl]-1-(4-fluorophenyl)-1H-imidazol-2-yl}thio)methyl]-1-(methylsulfonyl)piperidine]"
,,< 0.1,< 0.1,CC(C)(c1ccc2nccnc2c1)c1nnc(SCc2c(F)cccc2Cl)n1-c1ccc(F)cc1 [Example 45]
0.1 to 1,0.1 to 1,,,COc1cc(C(C)(C)c2cnc(SCc3c(F)cccc3Cl)n2-c2cccnc2)ccc1Cl [3-(2-{[(2-chloro-6-fluorophenyl)methyl]thio}-5-{1-[4-chloro-3-(methyloxy)phenyl]-1-methylethyl}-1H-imidazol-1-yl)pyridine]
< 0.1,0.1 to 1,,,CCNC(=O)NS(=O)(=O)c1ccc(CSc2ncc(C(C)(C)c3ccc(Cl)c(OC)c3)n2-c2ccc(F)cc2)c(Cl)c1 [3-chloro-4-({[5-{1-[4-chloro-3-(methyloxy)phenyl]-1-methylethyl}-1-(4-fluorophenyl)-1H-imidazol-2-yl]thio}methyl)-N-[(ethylamino)carbonyl]benzenesulfonamide]
< 0.1,< 0.1,,,COc1cc(C(C)(C)c2cnc(SCc3c(F)cc(C(=O)NC4CCN(c5nnn[nH]5)CC4)cc3Cl)n2-c2ccc(F)cc2)ccc1Cl [3-chloro-4-({[5-{1-[4-chloro-3-(methyloxy)phenyl]-1-methylethyl}-1-(4-fluorophenyl)-1H-imidazol-2-yl]thio}methyl)-5-fluoro-N-[1-(1H-tetrazol-5-yl)piperidin-4-yl]benzamide]
,,< 0.1,< 0.1,CC(C)(c1ccc2cccnc2c1)c1nnc(SCc2c(F)cccc2Cl)n1-c1ccc(F)cc1 [Example 47]
0.1 to 1,< 0.1,,,"CC(C)(c1ccc(Cl)c(Cl)c1)c1cnc(SCc2ccc(F)c(S(N)(=O)=O)c2)n1-c1ccc(F)cc1 [5-[({5-[1-(3,4-dichlorophenyl)-1-methylethyl]-1-(4-fluorophenyl)-1H-imidazol-2-yl}thio)methyl]-2-fluorobenzenesulfonamide]"
0.1 to 1,0.1 to 1,,,CC(C)NC(=O)NS(=O)(=O)c1ccc(CSc2ncc(C(C)(C)c3ccc(F)c(C#N)c3)n2-c2ccc(F)cc2)c(Cl)c1 [3-chloro-4-[({5-[1-(3-cyano-4-fluorophenyl)-1-methylethyl]-1-(4-fluorophenyl)-1H-imidazol-2-yl}thio)methyl]-N-{[(1-methylethyl)amino]carbonyl}benzenesulfonamide]
< 0.1,< 0.1,,,"COc1cc(C(C)(C)c2cnc(SCc3c(F)cc(S(=O)(=O)NC(=O)NN4CCOCC4)cc3F)n2-c2ccc(F)cc2)ccc1Cl [4-({[5-{1-[4-chloro-3-(methyloxy)phenyl]-1-methylethyl}-1-(4-fluorophenyl)-1H-imidazol-2-yl]thio}methyl)-3,5-difluoro-N-[(morpholin-4-ylamino)carbonyl]benzenesulfonamide]"
< 0.1,< 0.1,,,COc1cc(C(C)(C)c2cnc(SCc3c(F)cc(S(=O)(=O)NCCS(=O)(=O)O)cc3Cl)n2-c2ccc(F)cc2)ccc1Cl [2-({[3-chloro-4-({[5-{1-[4-chloro-3-(methyloxy)phenyl]-1-methylethyl}-1-(4-fluorophenyl)-1H-imidazol-2-yl]thio}methyl)-5-fluorophenyl]sulfonyl}amino)ethanesulfonic acid]
< 0.1,< 0.1,,,CCOC(=O)NS(=O)(=O)c1ccc(CSc2ncc(C(C)(C)c3ccc(OC)c(Cl)c3)n2-c2ccc(F)cc2)c(Cl)c1 [ethyl {[3-chloro-4-({[5-{1-[3-chloro-4-(methyloxy)phenyl]-1-methylethyl}-1-(4-fluorophenyl)-1H-imidazol-2-yl]thio}methyl)phenyl]sulfonyl}carbamate]
< 0.1,< 0.1,,,"COc1cc(-n2c(C(C)(C)c3ccc4onc(N)c4c3)cnc2SCc2c(F)cc(C(=O)O)cc2F)ccc1F [4-[({5-[1-(3-amino-1,2-benzisoxazol-5-yl)-1-methylethyl]-1-[4-fluoro-3-(methyloxy)phenyl]-1H-imidazol-2-yl}thio)methyl]-3,5-difluorobenzoic acid]"
